Data from patent US10472664B2, “Screening assay for identification of poly(ADP-ribose) polymerase 1 inhibitors” (Institute for Cancer Research, priority 2014, dated 2019).

Test system: PARP-1
Experiment: PARP-1 regulation by purified histones in vitro, pADPr detected on Western blot
Format: biochemical
Conditions: PARP-1 pre-incubated with purified histone, then mixed with NAD; FIG. 2A, 2B
Method: FIGS. 2A-D show PARP-1 protein regulation by histones (poly(ADP-ribose) polymer is denoted “pADPr”). […] Full-length PARP-1 protein (left) and PARP-1 protein cleaved by Caspase 3 (right) were pre-incubated with randomly broken DNA or core histone H4, followed by mixing with NAD. The products of PARP-1 enzymatic activity, poly(ADP-ribose), were detected after PAGE on a Western blot using the anti-pADPr antibody. […] PARP-1 was pre-incubated with different coregulators, followed by mixing with NAD. The amount of the product of PARP-1 enzymatic activity, poly(ADP-ribose), was detected after PAGE on a Western blot using the anti-Change(s) pADPr antibody and quantified independently using the Image Quant.
The two pathways described in Example 1 can be separated in vitro by cleaving Zn-fingers from the PARP-1 protein using caspase 3. This isoform of PARP-1 can be still activated by H4, but not by DNA (FIG. 2, panel A). […] Although histones H2Av and H2AvSE inhibit PARP-1 by themselves, when contained inside of a nucleosome they facilitate PARP-1 interaction with H4 and thereby activate PARP-1 (FIG. 2 panel D). […] Without intending to be limited to any particular theory or mechanism of action, it is believed that interactions with histones play an important for PARP-1 activation in vivo in genotoxic stress response and in transcriptional pathways.

Substance: H2Av: purified histone variant H2Av
- PARP-1 activation (poly(ADP-ribose) production): does not activate PARP-1
